“Also recorded” adds a separate entry of the source. Like-named read-outs stand apart in the source and are kept apart here.
Key:
[1] = system: goblet cell mucus of human colorectal mucosal tissue; experiment: Fluorescent staining of frozen sliced specimen of human colonic mucosa (Test Example A); settings: for Fluorescent staining signal in goblet cell mucus, sliced section: 10 μm frozen section, 0.5% periodic acid pretreatment, 50 μM overnight
Experimental: A tissue to be stained was washed with phosphate buffered saline (PBS), was immersed in 30% (w/v) of sucrose in the PBS, and was frozen in O.C.T. COMPOUND (45833, Sakura Finetek) at −80° ° C. overnight. The frozen tissue was cut into a thickness of 10 μm with a cryostat (CM3050 S, Leica Biosystems). The resultant frozen section was washed with PBS three times, and was subjected to pretreatment with a 0.5% solution of periodic acid (HIOA) (86171, MUTO PURE CHEMICALS CO., LTD.) at room temperature for 30 minutes. The section was washed with PBS three times, and was incubated in FAM hydrazide, 5-isomer((50 µM, 24170, BroadPharm, in this description, sometimes referred to as “FAM hydrazide”), Alexa Fluor 488 hydrazide (50 μM, A10436, ThermoFisher Scientific, Inc.), BDP FL hydrazide (50 μM, 11470, Lumiprobe Corporation), or fluorescein (50 µM, FUJIFILM Wako Pure Chemical Corporation) diluted with PBS at room temperature overnight. After that, the section was washed with PBS and an image thereof was obtained with a confocal microscope.
A section of a human colorectal mucosal tissue sampled from the non-tumor region of a surgical specimen of colorectal cancer was subjected to fluorescent staining through use of FAM hydrazide, Alexa Fluor 488 hydrazide, BDP FL hydrazide, or fluorescein serving as a fluorescent skeleton as a stain.

[2] = system: human colonic mucosal tissue; experiment: Clearing and whole-mount 3D fluorescent staining of human colonic mucosal tissue (Test Example B); settings: for 3D imaging signal of cleared tissue: CUBIC clearing, periodic acid, 50 μM, 2-3 days, excitation 488 nm; for Staining property for a sample having a thickness after clearing treatment: summary of Examples and Test Examples
Experimental: CUBIC-L and CUBIC-R+reagents (T3740 and T3741, Tokyo Chemical Industry Co., Ltd.) were used in tissue clearing. Atissue removal procedure is simply described below.
A formaldehyde-fixed tissue specimen was washed with PBS, and was subsequently immersed in a 50% (v/v) CUBIC-L reagent (mixture containing water and the CUBIC-L reagent at 1:1) overnight. Further, the specimen was immersed in the CUBIC-L reagent at 37° C. for 5 days or 6 days while being gently shaken. Next, each of those specimens was washed with PBS, was immersed in 30% (w/v) of sucrose in the PBS, and was frozen in O.C.T. COMPOUND at −80° C. overnight. […] After having been washed with PBS, the specimen was stained by being gently shaken at room temperature for 2 days or 3 days together with FAM hydrazide, 5-isomer (50 μM), Compound 1 (50 μM), Alexa Fluor 488 hydrazide (50 µM), BDP FL hydrazide ([…]), or fluorescein (50 µM) in PBS containing 0.5% (v/v) of Triton X-100 (12967, Nacalai Tesque, Inc.). When nuclear counterstaining was performed, propidium iodide (PI) (10 μg/mb, P21493, Life Technologies Corporation) or RedDot-2 (1:100, 40061-T, Biotium, Inc.) was also added to the staining solution. After the staining step, the specimen was washed with PBS, and was immersed in a 50% (v/v) CUBIC-R+reagent (mixture containing water and the CUBIC-R+reagent at 1:1) overnight. Further, the specimen was immersed in the CUBIC-R+reagent for 1 day or 2 days while being gently shaken. A cleared tissue specimen thus obtained was subjected to 3D imaging with a confocal fluorescence microscope or a light-sheet fluorescence microscope. A wavelength of 488 nm was applied as the excitation wavelength of each of FAM hydrazide, Compound 1, Alexa Fluor 488 hydrazide, BDP FL hydrazide, and fluorescein, and the fluorescence detection wavelength range of each of these materials was from 490 nm to 562 nm.
A 3D image was obtained by using a confocal microscope (Zeiss LSM880 Confocal/Multiphoton, Carl Zeiss AG) or a light-sheet fluorescence microscope (Zeiss Lightsheet 7, Carl Zeiss AG), All pieces of raw image data were reconstructed and analyzed with Imaris software (version 9.2.1, Bitplane Inc.).
A human colonic mucosal tissue after its formalin fixation, which had been excised into a square about 4 mm on a side, was subjected to clearing treatment and to whole-mount 3D tissue staining through use of FAM hydrazide, Alexa Fluor 488 hydrazide, BDP FL hydrazide, or fluorescein as a stain.

[3] = Fluorescence spectra before and after addition of propionaldehyde; assay type: physicochemical; settings: 0.02 mmol/L in 10 mmol/L sodium phosphate buffer pH 7.4; propionaldehyde 0.10 mmol/L; room temperature 4 days
Experimental: Propionaldehyde was added to a 10 mmol/L sodium phosphate buffer (pH: 7.4) containing 0. 02 mmol/L of each of DAF-2 and Compound 2 so that its final concentration became 0.10 mmol/L, followed by stirring at room temperature for 4 days. The absorption and fluorescence spectra of each of the solutions before the addition of the aldehyde and after the addition were measured.

[4] = system: mucus of a goblet cell of colonic mucosa; experiment: Staining of frozen sliced section of human colonic mucosal tissue (Example 5); settings: 8 μm frozen section, 50 μM in PBS, room temperature 1 day, confocal microscope
Description: A fluorescent probe containing a diaminobenzene structure, such as DAF-2 or Compound 2, was examined for its staining property in the mucus of a goblet cell by using a frozen sliced section of a human colonic mucosal tissue as a positive control analyte. Specifically, a sliced frozen section was cut out of the colonic mucosal tissue after its formalin fixation, and was stained with a group of candidate fluorescent probes and washed with phosphate buffered saline. After that, an image of the section was taken with a confocal fluorescence microscope.
(§1) Specifically, the human colonic mucosal tissue sample after the formalin fixation was sufficiently washed with PBS, and was then immersed in PBS containing 30% (w/v) of sucrose, followed by the production of a frozen block with TISSUE-TEK O. C. T. COMPOUND. The frozen block was sliced into a thickness of 8 μm to produce a frozen section. The frozen section was washed with PBS, and was then stained with a solution, which had been obtained by diluting DAF-2 ([…]) or Compound 2 (50 μM) with PBS, at room temperature for 1 day. After that, the stained product was sufficiently washed with PBS. Then, the washed product was mounted with a water-soluble mounting medium, and an image thereof was taken with a confocal microscope.

[5] = system: basement membrane of a renal glomerulus; experiment: Staining of basement membrane of renal glomerulus (Example 5); settings: staining as for colonic section
Experimental: as §1

[6] = system: colonic mucosal epithelium; experiment: Staining combined with CUBIC tissue clearing, 3D imaging (Example 5); parameters: species or system human; settings: CUBIC-L/CUBIC-R+ clearing, periodic acid pretreatment, 50 μM, room temperature 3 days
Experimental: Specifically, the human colonic mucosal tissue sample after the formalin fixation was sufficiently washed with PBS, and was then immersed in a solution, which had been obtained by diluting a CUBIC-L reagent with distilled water to 1/2, at 37° ° C. while being gently shaken. After that, the sample was immersed in the CUBIC-L reagent, and was treated at 37° C. while being gently shaken. During the treatment, the CUBIC-L reagent was replaced with a new one at an interval of once per 1 to 2 days. After that, the sample was sufficiently washed with PBS, and was then immersed in PBS containing 30% (w/v) of sucrose. After that, a frozen block of the Sample was produced by using TISSUE-TEK O.C.T. COMPOUND. The frozen block was thawed, and was then sufficiently washed with PBS and subjected to pretreatment with a […] aqueous solution of periodic acid, followed by staining with a solution, which had been obtained by diluting DAF-2 (50 μM) with PBS, at room temperature for 3 days. After that, the stained product was sufficiently washed with PBS, and was then immersed in a solution obtained by diluting a CUBIC-R+reagent with distilled water to 1/2, followed by gentle shaking at room temperature. After that, the resultant was immersed in the CUBIC-R+reagent at room temperature for 1 day while being gently shaken. An image of the resultant was taken with a confocal microscope. […]

[7] = Light characteristics: molar extinction coefficient and quantum yield (Table 1); assay type: physicochemical; settings: 10 mM sodium phosphate buffer, pH 7.4
Description: When propionaldehyde was caused to act on DAF-2 (product model number: SK1001-01, Goryo Chemical, Inc.), Compound 16 below was obtained. It was recognized that Compound 16 was fluorescent and its fluorescence intensity increased along with the formation of a benzimidazole ring. […] The formation of a covalent bond with the aldehyde enables detection by fluorescence emission.

[8] = 100 mM sodium phosphate buffer, pH 7.4, cited from earlier work

| Compound | Fluorescence intensity after addition of the aldehyde compared to before [3] | Fluorescent staining signal in goblet cell mucus, sliced section [1] | 3D imaging signal of cleared tissue [2] | Staining property for a sample having a thickness after clearing treatment [2] | Staining of mucus of goblet cell of colonic mucosa [4] | Visualization of basement membrane of renal glomerulus [5] | 3D imaging of colonic mucosal epithelium [6] | other results |
| --- | --- | --- | --- | --- | --- | --- | --- | --- |
| Cc1cc(C)n2c1C=C1C=CC(CCC(=O)NN)=[N+]1[B-]2(F)F.Cl [BDP FL hydrazide] |  | weak | weak | insufficient |  |  |  |  |
| CCc1nc2cc(C(=O)O)c(-c3c4ccc(=O)cc-4oc4cc(O)ccc34)cc2[nH]1 [Compound 16] |  |  |  |  |  |  |  | Quantum yield [7]: 0.85; λabs [7]: 489 nm; Molar extinction coefficient ([7]; in M-1 cm-1 (unit assumed)): 63,000 |
| Alexa Fluor 488 hydrazide |  | clear positive image; also recorded: clear staining | weak | insufficient |  |  |  | Fluorescent staining signal without oxidation treatment with HIO4, sliced section ([1]; no HIO4 oxidation): not obtained |

Now from value to compound, other results behind:

| Fluorescence intensity after addition of the aldehyde compared to before [3] | Compound | Fluorescent staining signal in goblet cell mucus, sliced section [1] | 3D imaging signal of cleared tissue [2] | Staining property for a sample having a thickness after clearing treatment [2] | Staining of mucus of goblet cell of colonic mucosa [4] | Visualization of basement membrane of renal glomerulus [5] | 3D imaging of colonic mucosal epithelium [6] | other results |
| --- | --- | --- | --- | --- | --- | --- | --- | --- |
| increase | Cc1cc(N)c(N)cc1-c1c2ccc(=O)cc-2oc2cc(O)ccc12 [Compound 2] |  |  | significantly excellent | clearly stained | clearly visualized | enabled the 3D imaging |  |
| increase | Nc1cc(C(=O)O)c(-c2c3ccc(=O)cc-3oc3cc(O)ccc23)cc1N [DAF-2] |  |  | significantly excellent | clearly stained | clearly visualized | enabled the 3D imaging | Quantum yield [8]: 0.005; λabs [8]: 486 nm; Molar extinction coefficient ([8]; in M-1 cm-1 (unit assumed)): 79,000 |
